Measured values: ChEMBL document CHEMBL1201862, “PubChem BioAssay data set” (2004)
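Interpolation was linear, between the two tested concentrations surrounding the appropriate level; five concentrations were tested over 48 hours in 96-well plates. GI50 marks 50% less growth.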 Active and inactive are the calls of the source. Cut-off read from the data, not from the text of the source: active = GI50 up to about 1.1 µM and inactive = higher.

Tests used:
Test in all cases: inhibition of tumour cell growth, NCI panel, 48 h
SK-MEL-28 = system: SK-MEL-28
HT-29 = system: HT-29
SK-OV-3 = system: SK-OV-3
NCI-H23 = system: NCI-H23
SF-539 = system: SF-539
SF-268 = system: SF-268
CAKI-1 = system: CAKI-1
SW-620 = system: SW-620
HCT-15 = system: HCT-15
LOX IMVI = system: LOX IMVI
SK-MEL-2 = system: SK-MEL-2
UACC-257 = system: UACC-257
HCT-116 = system: HCT-116
OVCAR-5 = system: OVCAR-5
K562 = system: K562
CCRF-CEM = system: CCRF-CEM
HL-60 = system: HL-60

Compound | GI50 (SK-MEL-28) | GI50 (HT-29) | GI50 (SK-OV-3) | GI50 (NCI-H23) | GI50 (SF-539) | GI50 (SF-268) | GI50 (CAKI-1) | GI50 (SW-620) | GI50 (HCT-15) | GI50 (LOX IMVI) | GI50 (SK-MEL-2) | GI50 (UACC-257) | GI50 (HCT-116) | GI50 (OVCAR-5) | GI50 (K562) | GI50 (CCRF-CEM) | GI50 (HL-60)
Cc1ccc2nc(NC(=O)C(=O)C(C#N)c3ccc(Cl)cc3)sc2c1 (stereo not drawn) | > 50 µM (inactive) | > 50 µM (inactive) | > 50 µM (inactive) | > 50 µM (inactive) | > 50 µM (inactive) | > 50 µM (inactive) | > 50 µM (inactive) | > 50 µM (inactive) | > 50 µM | > 50 µM (inactive) | > 50 µM (inactive) | > 50 µM (inactive) | > 50 µM (inactive) | > 50 µM (inactive) |  |  | 
NCCNC(=O)c1cccc2cc3ccccc3nc12 | 3 µM (inactive) | 1.87 µM (inactive) | 4.82 µM (inactive) | 2.62 µM (inactive) | 4.35 µM (inactive) | 1.61 µM (inactive) | 3.15 µM (inactive) | 1.42 µM (inactive) | 1.91 µM | 1.24 µM (inactive) | 2.47 µM (inactive) | 2.82 µM (inactive) | 1.11 µM (active) | 3.74 µM (inactive) | 2.15 µM (inactive) |  | 
CNc1nc(N)cc(O)n1 | > 100 µM (inactive) | > 100 µM (inactive) | > 100 µM (inactive) | > 100 µM (inactive) |  | > 100 µM (inactive) | > 100 µM (inactive) | > 100 µM (inactive) | > 100 µM | > 100 µM (inactive) | > 100 µM (inactive) | > 100 µM (inactive) | > 100 µM (inactive) | > 100 µM (inactive) | > 100 µM (inactive) | > 100 µM (inactive) | > 100 µM (inactive)
COc1cc([C@@H]2c3cc4c(cc3[C@@H](OC(=O)c3ccccc3)C3COC(=O)[C@@H]32)OCO4)cc(OC)c1O (stereo partly drawn) | < 0.01 µM (active) | < 0.01 µM (active) | < 0.01 µM (active) | 0.0148 µM (active) | < 0.01 µM (active) | 0.0289 µM (active) | < 0.01 µM (active) | < 0.01 µM (active) |  | < 0.01 µM (active) | 0.0104 µM (active) |  | < 0.01 µM (active) | 68.9 µM (inactive) | < 0.01 µM (active) | 0.0304 µM (active) | < 0.01 µM (active)
O=C(CCc1ccccc1)On1nnc2ccccc2c1=O |  | > 100 µM (inactive) | > 100 µM (inactive) | > 100 µM (inactive) | > 100 µM (inactive) | > 100 µM (inactive) | 30.8 µM (inactive) | > 100 µM (inactive) | > 100 µM | > 100 µM (inactive) | > 100 µM (inactive) | > 100 µM (inactive) | > 100 µM (inactive) | > 100 µM (inactive) | > 100 µM (inactive) | > 100 µM (inactive) | > 100 µM (inactive)
Cc1c(C(=O)/C=C/c2cccc3ccccc23)[n+]([O-])c2ccccc2[n+]1[O-] | 13 µM (inactive) | 12.3 µM (inactive) | 17.3 µM (inactive) | 12.8 µM (inactive) | 11.4 µM (inactive) | 14.7 µM (inactive) | 7.85 µM (inactive) | 10.4 µM (inactive) | 12.7 µM | 7.93 µM (inactive) |  | 13.5 µM (inactive) | 6.12 µM (inactive) | 15.2 µM (inactive) | 4.72 µM (inactive) | 3.2 µM (inactive) | 7.41 µM (inactive)
O=[PH](O)c1ccccn1 | > 100 µM (inactive) | > 100 µM (inactive) | > 100 µM (inactive) | > 100 µM (inactive) | > 100 µM (inactive) | > 100 µM (inactive) | > 100 µM (inactive) | > 100 µM (inactive) | > 100 µM | > 100 µM (inactive) |  | > 100 µM (inactive) | > 100 µM (inactive) | > 100 µM (inactive) | > 100 µM (inactive) | > 100 µM (inactive) | > 100 µM (inactive)
COc1ccc(OC)c(N2CC(N)C2=O)c1 (stereo not drawn) | > 100 µM (inactive) | > 100 µM (inactive) | > 100 µM (inactive) | > 100 µM (inactive) | > 100 µM (inactive) | > 100 µM (inactive) |  | > 100 µM (inactive) | > 100 µM | > 100 µM (inactive) | > 100 µM (inactive) | > 100 µM (inactive) | > 100 µM (inactive) |  | > 100 µM (inactive) | > 100 µM (inactive) | > 100 µM (inactive)
O=C1c2ccccc2C(=O)c2c1ccc(O)c2O [ATHRAQUINONES A] | > 100 µM (inactive) | 36 µM (inactive) |  | 41.6 µM (inactive) | 42.6 µM (inactive) | 32 µM (inactive) | 39.5 µM (inactive) | 37.9 µM (inactive) | 37.1 µM | 37.8 µM (inactive) | 43 µM (inactive) | 71.1 µM (inactive) | 32.4 µM (inactive) | > 100 µM (inactive) | 36.1 µM (inactive) | 36.6 µM (inactive) | 
